From patent US5387602A, “1.5-diphenyl-3-(N-hydroxycarbamoyloxyalkyl)pyrazoles” (Ortho Pharmaceutical Corporation, priority 1993, dated 1995)
Like-named read-outs stand apart in the source and are kept apart here.

How the values were obtained:
CO in intact RBL-1 cells = molecular target: T1, CO in intact RBL-1 cells (Rattus norvegicus, UniProt Q63921); experiment: Procedure III: inhibition of CO in intact RBL-1 cells; format: cell-based
T1 construct: 5-LO and CO in intact RBL-1 cells; endogenous in cells; host or cells: RBL-1 (rat basophilic leukemia cells), intact
T1 sequence (Q63921 27-602): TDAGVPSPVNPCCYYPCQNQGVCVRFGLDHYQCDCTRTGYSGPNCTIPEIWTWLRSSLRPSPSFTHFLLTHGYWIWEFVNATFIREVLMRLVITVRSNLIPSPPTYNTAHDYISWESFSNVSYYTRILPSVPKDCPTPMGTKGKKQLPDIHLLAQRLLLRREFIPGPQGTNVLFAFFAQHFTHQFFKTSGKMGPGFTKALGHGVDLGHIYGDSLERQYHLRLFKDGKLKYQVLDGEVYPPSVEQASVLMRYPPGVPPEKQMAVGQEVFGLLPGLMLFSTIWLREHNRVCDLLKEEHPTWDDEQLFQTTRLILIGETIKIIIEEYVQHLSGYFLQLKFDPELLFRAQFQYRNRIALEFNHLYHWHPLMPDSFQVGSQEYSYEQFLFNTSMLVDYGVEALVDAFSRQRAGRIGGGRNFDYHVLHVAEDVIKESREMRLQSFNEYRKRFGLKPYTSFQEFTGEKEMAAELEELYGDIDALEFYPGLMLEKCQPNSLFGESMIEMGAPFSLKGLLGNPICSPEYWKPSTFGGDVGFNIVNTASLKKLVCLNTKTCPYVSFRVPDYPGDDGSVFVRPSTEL
Experimental: The ability to inhibit 5-LO and CO in intact RBL-1 cells was also evaluated. RBL-1 cells were maintained in culture in minimal essential medium (Bio*Whittaker, Walkersville, Md.), containing 12.5% fetal calf serum, 10 mg/mL streptomycin, 10 I.U./mL penicillin G, […] gentamycin and 2 mM L-glutamine (Bio*Whittaker, Walkersville, Md.). Cells were collected by centrifugation, washed once in HBSS, and resuspended at a concentration of 1×10^5 cells/mL. Cells were incubated in the presence of vehicle or drug then centrifuged at 800×g for 10 minutes at 4° C. The supernatant was removed by aspiration and the cells were resuspended in 0.5 mL of HBSS. The reaction was started by the addition of 20 μg/mL of calcium ionophore A-23187 (mixed calcium and magnesium salts, Calbiochem, La Jolla, Calif.) and allowed to proceed for 15 minutes, then stopped by plunging the tubes into a slush ice bath. The conversion of AA to 5-LO products was initiated by the addition of 10 μL (50 uCi) of 1-^14 C-AA. Products were isolated by acidification and extraction, followed by thin layer chromatography analysis as described above. Radioactive areas corresponding to authentic 5-LO and CO products were quantitated by the Bioscan 2000 Imaging System.
(§1) In the following tables, the superscripts indicate the number of experiments and, unless otherwise stated, the dose at which % inhibition is reported is 3 MPK.

[1] = system: 5-LO (LTB4) in dog whole blood; experiment: Procedure IV: ex vivo eicosanoid synthesis in dog whole blood after oral dosing, 5-LO; conditions: Canis lupus familiaris, read-out: % INHIB/HOURS 5-LO (Proc. IV); for inhibition at 1 mg/kg: 1 MPK; for inhibition at 5 mg/kg: 5 MPK
Experimental: (§2) Ex Vivo eicosanoid synthesis in dog whole blood. Adult beagle or mongrel dogs (10-15 kg) of either sex were fasted overnight prior to the initiation of each experiment. The forelimb was clipped and swabbed with an alcohol prep (70% isopropanol). Blood was drawn by venipuncture into syringes containing lithium heparin (Starstead, Newton N.C.) immediately prior to administration of compound or vehicle and then at various intervals following dosing. The test compound was administered orally as a suspension in 0.5% methocel. At various times after dosing, blood samples were drawn and placed on an electric rocker platform to assure complete and continuous mixing. White blood cell (wbc) counts were performed using a Sysmex hematology analyzer. This was done in an effort to normalize the number of leukocytes to be stimulated with calcium ionophore. A 1.0 mL aliquot of whole blood was challenged with 50 μL of a 2.6×10^-5 M solution of calcium ionophore A23187 (Calbiochem, La Jolla, Calif.) prepared in DMSO and diluted in HBSS. After a 15 minute incubation at 37° C., the reaction was stopped by placing the samples in an ice bath (4° C.) for 5 minutes and then centrifuged at 11,000×g for 5 minutes to separate the plasma fraction from blood cells. The plasma fraction was removed, diluted in an appropriate buffer, and analyzed for the presence of LTB4 and prostaglandin F2a or TxB2 by standard RIA techniques.
as §1

[2] = system: CO (prostaglandin F2a or TxB2) in dog whole blood; experiment: Procedure IV: ex vivo eicosanoid synthesis in dog whole blood after oral dosing, CO; conditions: Canis lupus familiaris, read-out: % INHIB/HOURS CO (Proc. IV); for inhibition at 1 mg/kg: 1 MPK; for inhibition at 5 mg/kg: 5 MPK
Experimental: as §2, §1

For `COc1ccc(-n2nc(COC(=O)NO)cc2-c2ccc(Cl)cc2)cc1` [1-A], the IC50 (CO in intact RBL-1 cells) was 1.4 µM.
Compound `COc1ccc(-n2nc(COC(=O)N(C)O)cc2-c2ccc(Cl)cc2)cc1` [1-B] has an IC50 (CO in intact RBL-1 cells) of 0.38 µM.
Work on `COc1ccc(-n2nc(COC(=O)N(O)C(C)C)cc2-c2ccc(Cl)cc2)cc1` [1-C] yielded an IC50 (CO in intact RBL-1 cells) of 0.54 µM.
`COc1ccc(-n2nc(COC(=O)NO)c(Br)c2-c2ccc(Cl)cc2)cc1` [1-D] showed an IC50 (CO in intact RBL-1 cells) of 2.4 µM.
For `COc1ccc(-n2nc(COC(=O)N(C)O)c(Br)c2-c2ccc(Cl)cc2)cc1` [1-E], the IC50 (CO in intact RBL-1 cells) was 0.22 µM.
`COc1ccc(-n2nc(COC(=O)N(O)C(C)C)c(Br)c2-c2ccc(Cl)cc2)cc1` [1-F] gave an IC50 (CO in intact RBL-1 cells) of 1.9 µM, an inhibition at 7.5 mg/kg ([1]; 7.5 MPK, 6 hours) of 38% and an inhibition at 7.5 mg/kg ([2]; 7.5 MPK, 6 hours) of 82%.
`COc1ccc(-n2nc(COC(=O)NO)c(Cl)c2-c2ccc(Cl)cc2)cc1` [1-G] gave an IC50 (CO in intact RBL-1 cells) of 2.2 µM.
Work on `COc1ccc(-n2nc(COC(=O)N(C)O)c(Cl)c2-c2ccc(Cl)cc2)cc1` [1-H] yielded an IC50 (CO in intact RBL-1 cells) of 0.39 µM.
`COc1ccc(-n2nc(COC(=O)N(O)C(C)C)c(Cl)c2-c2ccc(Cl)cc2)cc1` [1-I] gave an IC50 (CO in intact RBL-1 cells) of 1.97 µM.
Work on `COc1ccc(-n2nc(COC(=O)NO)cc2-c2ccc(C)cc2)cc1` [1-J] yielded an IC50 (CO in intact RBL-1 cells) of 0.17 µM.
With `COc1ccc(-n2nc(COC(=O)N(C)O)cc2-c2ccc(C)cc2)cc1` [1-K] the IC50 (CO in intact RBL-1 cells) was 0.03 µM, the inhibition at 3 mg/kg ([1]; 3 MPK, 2 hours) was 21% and the inhibition at 3 mg/kg ([2]; 3 MPK, 2 hours) was 95%.
In the case of `COc1ccc(-n2nc(COC(=O)N(O)C(C)C)cc2-c2ccc(C)cc2)cc1` [1-L], the IC50 (CO in intact RBL-1 cells) is reported as 0.02 µM, the inhibition at 1 mg/kg ([1]; 2 hours) is reported as 22% and the inhibition at 1 mg/kg ([2]; 2 hours) is reported as 68%.
Work on `COc1ccc(-n2nc(COC(=O)NO)c(Br)c2-c2ccc(C)cc2)cc1` [1-M] yielded an IC50 (CO in intact RBL-1 cells) of 0.86 µM.
`COc1ccc(-n2nc(COC(=O)N(C)O)c(Br)c2-c2ccc(C)cc2)cc1` [1-N] was tested, and the IC50 (CO in intact RBL-1 cells) was 0.08 µM.
Work on `COc1ccc(-n2nc(COC(=O)N(O)C(C)C)c(Br)c2-c2ccc(C)cc2)cc1` [1-O] yielded an IC50 (CO in intact RBL-1 cells) of 0.86 µM.
`COc1ccc(-n2nc(COC(=O)NO)c(Cl)c2-c2ccc(C)cc2)cc1` [1-P] gave an IC50 (CO in intact RBL-1 cells) of 2.5 µM, an inhibition at 5 mg/kg ([1]; 2 hours) of 27% and an inhibition at 5 mg/kg ([2]; 2 hours) of 72%.
For `COc1ccc(-n2nc(COC(=O)N(C)O)c(Cl)c2-c2ccc(C)cc2)cc1` [1-Q], the IC50 (CO in intact RBL-1 cells) was 0.15 µM.
`COc1ccc(-n2nc(COC(=O)N(O)C(C)C)c(Cl)c2-c2ccc(C)cc2)cc1` [1-R] was tested, and the IC50 (CO in intact RBL-1 cells) was 4.1 µM, the inhibition at 1 mg/kg ([1]; 2 hours) was 6% and the inhibition at 1 mg/kg ([2]; 2 hours) was 7%.
For `COc1ccc(-n2nc(CCOC(=O)N(C)O)cc2-c2ccc(Cl)cc2)cc1` [2-A], the IC50 (CO in intact RBL-1 cells) was 0.8 µM, the inhibition at 2.5 mg/kg ([1]; 2.5 MPK, 6 hours) was 0% and the inhibition at 2.5 mg/kg ([2]; 2.5 MPK, 6 hours) was 32%.
Compound `COc1ccc(-n2nc(CCOC(=O)N(O)C(C)C)cc2-c2ccc(Cl)cc2)cc1` [2-B] has an IC50 (CO in intact RBL-1 cells) of 0.18 µM, an inhibition at 5 mg/kg ([1]; 2 hours) of 0% and an inhibition at 5 mg/kg ([2]; 2 hours) of 33%.
For `COc1ccc(-n2nc(CCOC(=O)N(C)O)c(Cl)c2-c2ccc(Cl)cc2)cc1` [2-C], the IC50 (CO in intact RBL-1 cells) was 2.7 µM.
Work on `COc1ccc(-n2nc(CCOC(=O)N(O)C(C)C)c(Cl)c2-c2ccc(Cl)cc2)cc1` [2-D] yielded an IC50 (CO in intact RBL-1 cells) of 1.5 µM, an inhibition at 5 mg/kg ([1]; 2 hours) of 32% and an inhibition at 5 mg/kg ([2]; 2 hours) of 41%.
`COc1ccc(-n2nc(CCOC(=O)N(C)O)c(Br)c2-c2ccc(Cl)cc2)cc1` [2-E] gave an IC50 (CO in intact RBL-1 cells) of 2.2 µM, an inhibition at 5 mg/kg ([1]; 6 hours) of 57% and an inhibition at 5 mg/kg ([2]; 6 hours) of 62%.
For `COc1ccc(-n2nc(CCOC(=O)N(O)C(C)C)c(Br)c2-c2ccc(Cl)cc2)cc1` [2-F], the IC50 (CO in intact RBL-1 cells) was 2.4 µM, the inhibition at 5 mg/kg ([1]; 24 hours) was 11% and the inhibition at 5 mg/kg ([2]; 24 hours) was 42%.
In the case of `COc1ccc(-n2nc(CCOC(=O)N(C)O)cc2-c2ccc(C)cc2)cc1` [2-G], the IC50 (CO in intact RBL-1 cells) is reported as 0.08 µM.
`COc1ccc(-n2nc(CCOC(=O)N(O)C(C)C)cc2-c2ccc(C)cc2)cc1` [2-H] gave an IC50 (CO in intact RBL-1 cells) of 0.04 µM.
`COc1ccc(-n2nc(CCOC(=O)N(C)O)c(Cl)c2-c2ccc(C)cc2)cc1` [2-I] showed an IC50 (CO in intact RBL-1 cells) of 0.63 µM, an inhibition at 5 mg/kg ([1]; 6 hours) of 0% and an inhibition at 5 mg/kg ([2]; 6 hours) of 0%.
`COc1ccc(-n2nc(CCOC(=O)N(O)C(C)C)c(Cl)c2-c2ccc(C)cc2)cc1` [2-J] was tested, and the IC50 (CO in intact RBL-1 cells) was 1.1 µM, the inhibition at 5 mg/kg ([1]; 4 hours) was 26% and the inhibition at 5 mg/kg ([2]; 4 hours) was 73%.
Work on `COc1ccc(-n2nc(CCOC(=O)NO)c(Br)c2-c2ccc(C)cc2)cc1` [2-K] yielded an IC50 (CO in intact RBL-1 cells) of 3.2 µM.
In the case of `COc1ccc(-n2nc(CCOC(=O)N(C)O)c(Br)c2-c2ccc(C)cc2)cc1` [2-L], the IC50 (CO in intact RBL-1 cells) is reported as 1.8 µM.
Work on `COc1ccc(-n2nc(CCCOC(=O)NO)cc2-c2ccc(Cl)cc2)cc1` [3-A] yielded an IC50 (CO in intact RBL-1 cells) of 4.6 µM.
`COc1ccc(-n2nc(CCCOC(=O)N(C)O)cc2-c2ccc(Cl)cc2)cc1` [3-B] gave an IC50 (CO in intact RBL-1 cells) of 0.42 µM, an inhibition at 5 mg/kg ([1]; 6 hours) of 11% and an inhibition at 5 mg/kg ([2]; 6 hours) of 94%.
`COc1ccc(-n2nc(CCCOC(=O)N(O)C(C)C)cc2-c2ccc(Cl)cc2)cc1` [3-C] was tested, and the IC50 (CO in intact RBL-1 cells) was 1.23 µM.
`COc1ccc(-n2nc(CCCOC(=O)N(C)O)c(Cl)c2-c2ccc(Cl)cc2)cc1` [3-D] gave an IC50 (CO in intact RBL-1 cells) of 2.27 µM, an inhibition at 5 mg/kg ([1]; 2 hours) of 1% and an inhibition at 5 mg/kg ([2]; 2 hours) of 93%.
Work on `COc1ccc(-n2nc(CCCOC(=O)N(O)C(C)C)c(Cl)c2-c2ccc(Cl)cc2)cc1` [3-E] yielded an IC50 (CO in intact RBL-1 cells) of 12.2 µM, an inhibition at 5 mg/kg ([1]; 24 hours) of 22% and an inhibition at 5 mg/kg ([2]; 2 hours) of 76%.
Compound `COc1ccc(-n2nc(CCCOC(=O)N(C)O)c(Br)c2-c2ccc(Cl)cc2)cc1` [3-F] has an IC50 (CO in intact RBL-1 cells) of 4.92 µM, an inhibition at 5 mg/kg ([1]; 2 hours) of 8% and an inhibition at 5 mg/kg ([2]; 2 hours) of 45%.
`COc1ccc(-n2nc(CCCOC(=O)N(O)C(C)C)c(Br)c2-c2ccc(Cl)cc2)cc1` [3-G] was tested, and the IC50 (CO in intact RBL-1 cells) was 7 µM.
